Results from ChEMBL document CHEMBL1132741, “Novel antifungals based on 4-substituted imidazole: a combinatorial chemistry approach to lead discovery and optimization” (Bioorg Med Chem Lett, 2000).
In brackets after ≈: the same amount, converted by molar mass.

Assays:
[1] = Antifungal activity against molds expressed as negative log (pLAD value).; type: functional, mould
Saccharomyces cerevisiae = assay: Antifungal activity against yeast expressed as negative log (pLAD value).; type: functional
Candida parapsilosis = assay: Minimum inhibitory concentration of compound for antifungal activity against Candida parapsilosis; type: functional; conditions: Lodderomyces parapsilosis
Cryptococcus neoformans = assay: Minimum inhibitory concentration of compound for antifungal activity against Cryptococcus neoformans; type: functional
Trichophyton rubrum = assay: Minimum inhibitory concentration of compound for antifungal activity against Trichophyton rubrum; type: functional
Candida albicans [2] = assay: Minimum inhibitory concentration of compound for antifungal activity against Candida albicans 4; type: functional
Microsporum canis = assay: Minimum inhibitory concentration of compound for antifungal activity against Mucosporam canis; type: functional
Sporothrix schenckii = assay: Minimum inhibitory concentration of compound for antifungal activity against Sporothrix schenck ii; type: functional
Aspergillus fumigatus = assay: Minimum inhibitory concentration of compound for antifungal activity against Aspergillus fumigatus; type: functional
Kluyveromyces marxianus = assay: Minimum inhibitory concentration of compound for antifungal activity against Candida kefyr; type: functional
Pichia kudriavzevii = assay: Minimum inhibitory concentration of compound for antifungal activity against Candida krusei; type: functional
Candida albicans [3] = assay: Minimum inhibitory concentration of compound for antifungal activity against Candida albicans 2; type: functional
Candida albicans [4] = assay: Minimum inhibitory concentration of compound for antifungal activity against Candida albicans 1; type: functional
Candida tropicalis = assay: Minimum inhibitory concentration of compound for antifungal activity against Candida tropicalis; type: functional
Trichophyton benhamiae = assay: Minimum inhibitory concentration of compound for antifungal activity against Trichophyton mentagrophytes; type: functional, Arthroderma benhamiae
Nakaseomyces glabratus = assay: Minimum inhibitory concentration of compound for antifungal activity against Candida glabrata; type: functional
Candida albicans [5] = assay: Inhibition of ergosterol synthesis as measured in Candida albicans subcellular screen; type: functional

Compound	pLADm [1]	pLADy (Saccharomyces cerevisiae)	MIC (Candida parapsilosis)	MIC (Cryptococcus neoformans)	MIC (Trichophyton rubrum)	MIC (Candida albicans [2])	MIC (Microsporum canis)	MIC (Sporothrix schenckii)	MIC (Aspergillus fumigatus)	MIC (Kluyveromyces marxianus)	MIC (Pichia kudriavzevii)	MIC (Candida albicans [3])	MIC (Candida albicans [4])	MIC (Candida tropicalis)	MIC (Trichophyton benhamiae)	MIC (Nakaseomyces glabratus)	IC50 (Candida albicans [5])
CCCCOc1ccc(S(=O)(=O)N(Cc2c[nH]cn2)[C@H](C)C2CCCCC2)cc1	4.6	6.13															
CCCCOc1ccc(S(=O)(=O)N(Cc2c[nH]cn2)[C@@H](C)C2CCCCC2)cc1	5	5.9															
CCCCOc1ccc(S(=O)(=O)N(CCc2ccc(F)cc2)CC2=CNC(C)N2)cc1 (centres undefined)	3.92	3.95															
CCCCOc1ccc(S(=O)(=O)N(Cc2c[nH]cn2)C(CC)C2CCCCC2)cc1 (centres undefined)	5	>6.8	< 0.1 µM	1 µM (≈ 0.434 µg/mL)	1 µM (≈ 0.434 µg/mL)	< 0.1 µM	1 µM (≈ 0.434 µg/mL)	> 10 µM	> 10 µM	< 0.1 µM	1 µM (≈ 0.434 µg/mL)	< 0.1 µM	> 10 µM	1 µM (≈ 0.434 µg/mL)	10 µM (≈ 4.34 µg/mL)	1 µM (≈ 0.434 µg/mL)	
CCCCOc1ccc(S(=O)(=O)N(CC2CCCCC2)C(C)c2c[nH]cn2)cc1 (centres undefined)	4	6.3															
CCCCOc1ccc(S(=O)(=O)N(Cc2c[nH]cn2)CC2CCCCC2)cc1	3.6	6.1															
CC(C)C(C(C)C)N(Cc1c[nH]cn1)S(=O)(=O)c1cc(Cl)sc1Cl	4.5	6.3															0.071 µM
CCCCOc1ccc(S(=O)(=O)N(CC2CCCCC2)C(c2ccccc2)c2c[nH]cn2)cc1 (centres undefined)	4	5.1															
CCCCOc1ccc(S(=O)(=O)N(CCc2ccc(F)cc2)Cc2nc[nH]n2)cc1	3.92	3.95															
CCCCCCN(Cc1c[nH]cn1)S(=O)(=O)c1ccc(OCCCC)cc1	5.2	6.1															0.076 µM
CCCCOc1ccc(S(=O)(=O)N(CCCCc2ccccc2)Cc2c[nH]cn2)cc1	5.2	5.4															0.027 µM
CCCCOc1ccc(S(=O)(=O)N(Cc2c[nH]cn2)C(C2CCCCC2)C2CCCCC2)cc1	4	5															
CCCCOc1ccc(S(=O)(=O)N(CCc2ccc(F)cc2)Cc2c[nH]cn2)cc1	4.6	6.2	1 µM (≈ 0.432 µg/mL)	1 µM (≈ 0.432 µg/mL)	1 µM (≈ 0.432 µg/mL)	10 µM (≈ 4.32 µg/mL)	10 µM (≈ 4.32 µg/mL)	> 10 µM	> 10 µM	< 0.1 µM	> 10 µM	< 0.1 µM	> 10 µM	< 0.1 µM	> 10 µM	10 µM (≈ 4.32 µg/mL)	0.026 µM
CCCCOc1ccc(S(=O)(=O)N(Cc2c[nH]cn2)C(C(C)C)C(C)C)cc1	5	6.7	0.1 µM (≈ 0.0408 µg/mL)	1 µM (≈ 0.408 µg/mL)	1 µM (≈ 0.408 µg/mL)	< 0.1 µM	1 µM (≈ 0.408 µg/mL)	> 10 µM	> 10 µM	< 0.1 µM	10 µM (≈ 4.08 µg/mL)	< 0.1 µM	> 10 µM	0.1 µM (≈ 0.0408 µg/mL)	10 µM (≈ 4.08 µg/mL)	10 µM (≈ 4.08 µg/mL)	0.073 µM
CCCCOc1ccc(S(=O)(=O)N(CCc2ccccc2F)Cc2[nH]cnc2C)cc1	<4	<4															
CCCCOc1ccc(S(=O)(=O)N(Cc2cncn2C)C(C)C2CCCCC2)cc1 (centres undefined)	4.8	6.6	0.1 µM (≈ 0.0434 µg/mL)	1 µM (≈ 0.434 µg/mL)	1 µM (≈ 0.434 µg/mL)	10 µM (≈ 4.34 µg/mL)	1 µM (≈ 0.434 µg/mL)	> 10 µM	> 10 µM	< 0.1 µM	1 µM (≈ 0.434 µg/mL)	< 0.1 µM	> 10 µM	0.1 µM (≈ 0.0434 µg/mL)	10 µM (≈ 4.34 µg/mL)	1 µM (≈ 0.434 µg/mL)	
Brc1ccc(CCN(Cc2ccc(-c3ccccc3)cc2)Cc2c[nH]cn2)cc1	5.8	4.9															1.24 µM
CCCCCc1ccc(S(=O)(=O)N(CCC(C)C)Cc2c[nH]cn2)cc1	5	6.4															0.12 µM
CCCCOc1ccc(S(=O)(=O)N(CCc2cccs2)Cc2c[nH]cn2)cc1	4.4	6.5															0.011 µM
OC(Cn1cncn1)(Cn1cncn1)c1ccc(F)cc1F [FLUCONAZOLE]			10 µM (≈ 3.06 µg/mL)	10 µM (≈ 3.06 µg/mL)	10 µM (≈ 3.06 µg/mL)	1 µM (≈ 0.306 µg/mL)	10 µM (≈ 3.06 µg/mL)	> 10 µM	> 10 µM	1 µM (≈ 0.306 µg/mL)	> 10 µM	1 µM (≈ 0.306 µg/mL)	> 10 µM	> 10 µM	> 10 µM	> 10 µM	
CCC(C)n1ncn(-c2ccc(N3CCN(c4ccc(OCC5COC(Cn6cncn6)(c6ccc(Cl)cc6Cl)O5)cc4)CC3)cc2)c1=O (centres undefined) [ITRACONAZOLE]			< 0.1 µM	< 0.1 µM	< 0.1 µM	> 10 µM	< 0.1 µM	10 µM (≈ 7.06 µg/mL)	1 µM (≈ 0.706 µg/mL)	< 0.1 µM	1 µM (≈ 0.706 µg/mL)	< 0.1 µM	> 10 µM	0.1 µM (≈ 0.0706 µg/mL)	0.1 µM (≈ 0.0706 µg/mL)	1 µM (≈ 0.706 µg/mL)	
CC(=O)N1CCN(c2ccc(OC[C@H]3CO[C@](Cn4ccnc4)(c4ccc(Cl)cc4Cl)O3)cc2)CC1 [KETOCONAZOLE]			0.1 µM (≈ 0.0531 µg/mL)	0.1 µM (≈ 0.0531 µg/mL)	0.1 µM (≈ 0.0531 µg/mL)	10 µM (≈ 5.31 µg/mL)	1 µM (≈ 0.531 µg/mL)	10 µM (≈ 5.31 µg/mL)	10 µM (≈ 5.31 µg/mL)	< 0.1 µM	1 µM (≈ 0.531 µg/mL)	0.1 µM (≈ 0.0531 µg/mL)	> 10 µM	10 µM (≈ 5.31 µg/mL)	10 µM (≈ 5.31 µg/mL)	10 µM (≈ 5.31 µg/mL)	
